Tests used:
[1] = tested on: MDA-MB-231 breast cancer cells; assay: MTT cell viability, 48-h incubation, complete medium, MDA-MB-231; type: cell-based, human; settings: for IC50: Homo sapiens, MDA-MB-231, complete medium, mean ± SD
Method: (§1) Unless otherwise specified, all cell culture experiments were performed in a humidified 5% (v/v) CO2 air atmosphere at 37 °C in complete medium, and cell culture growth media were supplemented with 10% (v/v) foetal bovine serum and 2 mM L-glutamine. Human breast adenocarcinoma cell lines were cultured, maintained at densities lower than 1 × 10^6 cells/cm^2 and discarded upon reaching passage number 60. Stromal healthy cells (human colorectal fibroblasts, 18Co) were cultured using complete DMEM medium supplemented also with 1% (v/v) penicillin–streptomycin. Cells were maintained at densities less than 1 × 10^6 cells/cm^2 and discarded upon reaching passage number 12.
(§2) The full library of coumarins was tested in both breast cancer cell lines, i.e. MCF-7 and MDA-MB-231. Fibroblast were used as “healthy” control. Stocks of compounds 3a–3c, 4a–4m and 5 were dissolved in pure DMSO and then diluted in complete media. (Note that DMSO concentration was kept lower than 0.5% (v/v).) Briefly, MCF-7 and MDA-MB-231 cells were seeded in 96-well plates (3799, Corning Inc., NY, USA) at a density of 1 × 10^4 and 6.7 × 10^3 cells/cm^2, respectively, whereas 18Co fibroblasts were seeded at a density of 1 × 10^4 cells/cm^2. Cells were incubated with coumarin derivatives at concentrations 0.1, 1, 10, 50, 100 and 250 μM for 48 h. Untreated cells (negative) and cells incubated with 0.5% (v/v) DMSO in complete media (positive) were used as controls.
(§3) For each treatment, cell viability was measured via MTT assay after 48-h incubation as following described. Cell culture medium was replaced with 150 μL of fresh medium and 30 μL of MTT solution, and cells were incubated for 4 h (37 °C, 5% CO2). After the formazan crystal formation, cell culture medium was removed from each well and replaced with 200 μL of DMSO. The absorbance was measured at 540-nm wavelength using a plate reader (Synergy 2 Biotek plate reader, Gen5 software).
(§4) IC50 values were calculated (nonlinear regression, normalized response–variable slope) with GraphPad Prism (version 7.04). Values were ranked and classified as: high toxicity, moderate toxicity, poor toxicity and no toxicity. Threshold were set as 60, 80 and > 100 μM, respectively. The selection was used in order to test only the most toxic coumarins under cell culture condition more relevant to the tumour microenvironment, i.e. deprived cell culture media (Sect. 3.3).

[2] = tested on: MCF-7 breast cancer cells; assay: MTT cell viability, 48-h incubation, complete medium, MCF-7; type: cell-based, human; settings: for IC50: Homo sapiens, MCF7, 48-h incubation, complete medium, mean ± SD
Method: as §1, §2, §3, §4

[3] = tested on: MCF-7 breast cancer cells; assay: MTT cell viability under nutrient-deprived conditions, MCF-7; type: cell-based; settings: Homo sapiens, MCF7, up to 48 h, average ± SD
Method: (§5) Cells were culture using nutrient-deprived cell culture conditions (i.e. cell culture media with no glucose, L-glutamine, HEPES and sodium pyruvate) to mimic conditions similar to the tumour microenvironment. Note that these experiments were performed only using breast cancer cells. MCF-7 and MDA-MB-231 cells were seeded in 96-well plates (Corning Inc., NY, USA) at a density of 1 × 10^4 and 6.7 × 10^3 cells/cm^2, respectively. Cells were incubated with coumarin derivatives at concentrations of 0.1, 1, 10, 50, 100 and 250 μM up to 48 h. Untreated cells (negative) and cells incubated with 0.5% (v/v) DMSO in complete media (positive) were used as controls.
as §3, §4
(§6) On that basis, we exposed the breast cancer cells to nutrient-deprived conditions where culture media were supplemented only with 2.5% v/v FBS, but not additional glucose, L-glutamine, sodium pyruvate. The coumarins tested were auraptene (4k), umbelliprenin (4l) and analogues 4d, 4c and 4g. […] In similar studies, Zhang et al. and Jun et al. reported the high preferential cytotoxicity of umbelliprenin (4l) and its C6 analogue under NDC against pancreatic cancer cells. It should be therefore noted that these derivatives could represent a potential new tool for treating aggressively metastatic hypoxic tumours. The exact mechanism of action, though, should be further investigated.

[4] = tested on: MDA-MB-231 breast cancer cells; assay: MTT cell viability under nutrient-deprived conditions, MDA-MB-231; type: cell-based; settings: Homo sapiens, up to 48 h, average ± SD
Method: as §5, §3, §4, §6

18Co colon fibroblasts = assay: MTT cell viability, 48-h incubation, 18Co fibroblasts (healthy control); type: cell-based, human; settings: for IC50: Homo sapiens, Fibroblast, 48-h incubation, healthy control, mean ± SD
Method: as §1, §2, §3, §4

Row | SMILES | IC50 [1] [µM] | IC50 [2] [µM] | melting point [°C] | IC50 [3] [µM] | IC50 [4] [µM] | IC50 (18Co colon fibroblasts) [µM] | cytotoxicity in words, MDA-MB-231 [1] | fold more cytotoxic than monosubstituted analogue 4a ([2]; MCF-7 cells, 4g versus 4a) | toxicity in words, 18Co fibroblasts (18Co colon fibroblasts; healthy control cells)
1 | CCCCCCCCOc1ccc2c(CCC)cc(=O)oc2c1 [4f, 7-Octyloxy-4-propyl-2H-chromen-2-one] | 143 ± 34 | 124 ± 39 | 47 | – | – | – | – | – | –
2 | CC(C)=CCC/C(C)=C/CC/C(C)=C/CC/C(C)=C/COc1ccc2ccc(=O)oc2c1 [4m, 7-Geranylgeranyloxy-coumarin] | 187 ± 66 | > 250 | 72 to 73 | – | – | – | – | – | –
3 | CCCc1cc(=O)oc2cc(OC/C=C(\C)CCC=C(C)C)cc(OC/C=C(\C)CCC=C(C)C)c12 [4i, 5,7-Digeranyloxy-4-propyl-2H-chromen-2-one] | 133 ± 34 | > 250 | 79 | – | – | – | – | – | –
4 | CCCc1cc(=O)oc2cc(OCC=C(C)C)cc(OCC=C(C)C)c12 [4h, 5,7-Diprenyloxy-4-propyl-2H-chromen-2-one] | 159 ± 61 | 234 ± 76 | 71 to 72 | – | – | – | – | – | –
5 | CCCCCCCCOc1ccc2c(C)cc(=O)oc2c1 [4d, 4-Methyl-7-octyloxy-2H-chromen-2-one] | 113 ± 7 | 82 ± 19 | 51 | 29 ± 3 | 63 ± 5 | 206 ± 17 | slight toxic effect | – | –
6 | Cc1cc(=O)oc2cc(O)cc(O)c12 [3b, 5,7-Dihydroxy-4-methyl-2H-chromen-2-one] | > 250 | > 250 | – | – | – | – | – | – | –
7 | CC(C)=CCOc1cc(OCC=C(C)C)c2c(C)cc(=O)oc2c1 [4g, 5,7-Diprenyloxy-4-methyl-2H-chromen-2-one] | 144 ± 16 | 69 ± 14 | 90 | 35 ± 9 | 11 ± 2 | 216 ± 23 | – | approximately 2.5 times | –
8 | COc1cccc2c1C(=O)c1c(O)c3c(c(O)c1C2=O)C[C@@](O)(C(=O)CO)C[C@@H]3O[C@H]1C[C@H](N)[C@H](O)[C@H](C)O1 [doxorubicin, reference compound] | 0.48 | 0.97 | – | – | – | – | – | – | –
9 | O=c1ccc2ccc(O)cc2o1 [3c, 7-hydroxy-coumarin] | > 250 | > 250 | – | – | – | > 250 | – | – | –
10 | CC(=O)Oc1cc(OC(C)=O)c2c(C)cc(=O)oc2c1 [compound 5, 5,7-Diacetyloxy-4-methyl-2H-chromen-2-one] | > 250 | > 250 | – | – | – | – | – | – | –
11 | CCCc1cc(=O)oc2cc(O)ccc12 [3a, 7-Hydroxy-4-propyl-2H-chromen-2-one] | 206 ± 9 | 225 ± 19 | 130 | – | – | – | – | – | –
12 | CC(C)=CCC/C(C)=C/COc1ccc2ccc(=O)oc2c1 [4k, 7-Geranyloxy-2H-chromen-2-one] | 60 ± 4 | 70 ± 5 | – | 14 ± 5 | 12 ± 8 | 176 ± 62 | – | – | some toxicity
13 | CC(C)=CCCC(C)=CCCC(C)=CCOc1ccc2ccc(=O)oc2c1 [4l, 7-Farnesyloxy-coumarin] | 88 ± 3 | 98 ± 9 | – | 9 ± 1 | 7 ± 2 | > 250 | – | – | –

More lines, main results first:

Row | IC50 [1] [µM] | IC50 [2] [µM] | melting point [°C] | IC50 [3] [µM] | IC50 [4] [µM] | SMILES | IC50 (18Co colon fibroblasts) [µM] | cytotoxicity in words, MDA-MB-231 [1] | fold more cytotoxic than monosubstituted analogue 4a ([2]; MCF-7 cells, 4g versus 4a) | toxicity in words, 18Co fibroblasts (18Co colon fibroblasts; healthy control cells)
14 | 110 ± 29 | 105 ± 3 | – | 19 ± 3 | 51 ± 9 | CC(C)=CCCC(C)=CCCC(C)=CCOc1ccc2c(C)cc(=O)oc2c1 [4c, 7-Farnesyloxy-4-methyl-2H-chromen-2-one] | > 250 | – | – | –
15 | > 250 | > 250 | 89 | – | – | CCCc1cc(=O)oc2cc(OCC=C(C)C)ccc12 [4e, 7-Prenyloxy-4-propyl-2H-chromen-2-one] | – | – | – | –
16 | 175 ± 33 | 143 ± 11 | – | – | – | CC(C)=CCOc1ccc2ccc(=O)oc2c1 [4j, 7-Prenyloxy-2H-chromen-2-one] | – | – | – | –
17 | 169 ± 23 | 179 ± 35 | 84 | – | – | CC(C)=CCOc1ccc2c(C)cc(=O)oc2c1 [4a, 7-Prenyloxy-4-methyl-2H-chromen-2-one] | – | – | – | –
18 | 137 ± 9 | 129 ± 13 | – | – | – | CC(C)=CCC/C(C)=C/COc1ccc2c(C)cc(=O)oc2c1 [4b, 7-Geranyloxy-4-methyl-2H-chromen-2-one] | – | – | – | –

Reference: article PMC7870773, “Investigation of the cytotoxicity of bioinspired coumarin analogues towards human breast cancer cells” (Molecular Diversity, 2020)
